Test results as given in ChEMBL document CHEMBL4190187, “Discovery of pyrazolopyrimidine derivatives as novel inhibitors of ataxia telangiectasia and rad3 related protein (ATR)” (Bioorg Med Chem Lett, 2017).

How the values were obtained:
[1] = target: Fibroblast growth factor receptor 3 (Homo sapiens) (UniProt P22607); assay: Inhibition of recombinant human FGFR3 (447 to 761 residues) at 1 uM using poly(Glu,Tyr) 4:1 as substrate after 40 mins in presence of [gamma-33P]ATP by scintillation counting method
[2] = target: Homeodomain-interacting protein kinase 3 (Homo sapiens) (UniProt Q9H422); assay: Inhibition of recombinant human HIPK3 (161 to 562 residues) at 1 uM using myelin basic protein as substrate after 40 mins in presence of [gamma-33P]ATP by scintillation counting method
[3] = target: Aurora kinase A (Homo sapiens) (UniProt O14965); assay: Inhibition of recombinant full-length human Aurora-A at 1 uM using LRRASLG (kemptide) as substrate after 40 mins in presence of [gamma-33P]ATP by scintillation counting method
[4] = target: Insulin receptor (Homo sapiens) (UniProt P06213); assay: Inhibition of recombinant human activated IR (1005 to 1310 residues) at 1 uM using KKKSPGEYVNIEFG as substrate after 40 mins in presence of [gamma-33P]ATP by scintillation counting method
[5] = target: Protein-tyrosine kinase 6 (Homo sapiens) (UniProt Q13882); assay: Inhibition of recombinant full-length human BRK at 10 uM using poly(Glu,Tyr) 4:1 as substrate after 40 mins in presence of [gamma-33P]ATP by scintillation counting method
[6] = target: Macrophage colony-stimulating factor 1 receptor (Homo sapiens) (UniProt P07333); assay: Inhibition of recombinant human Fms (538 to end residues) at 1 uM using KKKSPGEYVNIEFG as substrate after 40 mins in presence of [gamma-33P]ATP by scintillation counting method
[7] = target: Calcium/calmodulin-dependent protein kinase type II subunit gamma (Homo sapiens) (UniProt Q13555); assay: Inhibition of recombinant human CAMK2gamma (1 to 330 residues) at 1 uM using […] after 40 mins in presence of [gamma-33P]ATP by scintillation counting method
[8] = target: Serine/threonine-protein kinase Nek9 (Homo sapiens) (UniProt Q8TD19); assay: Inhibition of recombinant human NEK9 (1 to 324 residues) at 1 uM using myelin basic protein as substrate after 40 mins in presence of [gamma-33P]ATP by scintillation counting method
[9] = target: Bone morphogenetic protein receptor type-1B (Homo sapiens) (UniProt O00238); assay: Inhibition of recombinant human ALK6 (148 to end residues) at 1 uM using casein as substrate after 40 mins in presence of [gamma-33P]ATP by scintillation counting method
[10] = target: Phosphatidylinositol 3-kinase (Mus musculus) (UniProt P26450+P42337); assay: Inhibition of recombinant full-length mouse PI3K p110a/p85a at 1 uM using phosphatidylinositol 4,5-bisphosphate as substrate after 40 mins in presence of [gamma-33P]ATP by scintillation counting method; assay type: protein assay
[11] = target: PI3K p110 alpha/p85 alpha (Mus musculus) (UniProt P26450+P42337); assay: Inhibition of recombinant full-length mouse p110a H1047R mutant/p85a at 1 uM using phosphatidylinositol 4,5-bisphosphate as substrate after 40 mins in presence of [gamma-33P]ATP by scintillation counting method; assay type: protein-complex assay
[12] = target: Serine/threonine-protein kinase Nek2 (Homo sapiens) (UniProt P51955); assay: Inhibition of recombinant full-length human NEK2 at 1 uM using myelin basic protein as substrate after 40 mins in presence of [gamma-33P]ATP by scintillation counting method
[13] = target: Discoidin domain-containing receptor 2 (Homo sapiens) (UniProt Q16832); assay: Inhibition of recombinant human DDR2 (467 to end residues) at 1 uM using KKSRGDYMTMQIG as substrate after 40 mins in presence of [gamma-33P]ATP by scintillation counting method
[14] = target: Serine/threonine-protein kinase TAO3 (Homo sapiens) (UniProt Q9H2K8); assay: Inhibition of recombinant human TAO3 (1 to 411 residues) at 1 uM using myelin basic protein as substrate after 40 mins in presence of [gamma-33P]ATP by scintillation counting method
[15] = target: Serine/threonine-protein kinase Nek11 (Homo sapiens) (UniProt Q8NG66); assay: Inhibition of recombinant full-length human NEK11 at 1 uM using myelin basic protein as substrate after 40 mins in presence of [gamma-33P]ATP by scintillation counting method
[16] = target: Mitogen-activated protein kinase 13 (Homo sapiens) (UniProt O15264); assay: Inhibition of recombinant full-length human SAPK4 at 1 uM using myelin basic protein as substrate after 40 mins in presence of [gamma-33P]ATP by scintillation counting method
[17] = tested on: PI3-kinase p110-alpha/p85-alpha (Homo sapiens), P27986+P42336 [E545K]; assay: Inhibition of recombinant full-length human p110a E545K mutant/p85a at 1 uM using phosphatidylinositol 4,5-bisphosphate as substrate after 40 mins in presence of [gamma-33P]ATP by scintillation counting method; assay type: protein-complex assay
[18] = target: Calcium/calmodulin-dependent protein kinase type IV (Homo sapiens) (UniProt Q16566); assay: Inhibition of recombinant full-length human CAMK4 at 1 uM using […] after 40 mins in presence of [gamma-33P]ATP by scintillation counting method
[19] = target: Mitogen-activated protein kinase 10 (Homo sapiens) (UniProt P53779); assay: Inhibition of recombinant full-length human JNK3 at 1 uM using peptide as substrate after 40 mins in presence of [gamma-33P]ATP by scintillation counting method
[20] = target: Mitogen-activated protein kinase 1 (Homo sapiens) (UniProt P28482); assay: Inhibition of recombinant full-length human MAPK2 at 1 uM using myelin basic protein as substrate after 40 mins in presence of [gamma-33P]ATP by scintillation counting method
[21] = target: CDK3/Cyclin E (Homo sapiens) (UniProt P24864+Q00526); assay: Inhibition of recombinant full-length human CDK3/Cyclin E at 1 uM using histone H1 as substrate after 40 mins in presence of [gamma-33P]ATP by scintillation counting method; assay type: protein-complex assay
[22] = target: RAC-alpha serine/threonine-protein kinase (Homo sapiens) (UniProt P31749); assay: Inhibition of recombinant full-length human PKBalpha at 1 uM using GRPRTSSFAEGKK as substrate after 40 mins in presence of [gamma-33P]ATP by scintillation counting method
[23] = target: Tyrosine-protein kinase JAK3 (Homo sapiens) (UniProt P52333); assay: Inhibition of recombinant human JAK3 (781 to end residues) at 1 uM using GGEEEEYFELVKKKK as substrate after 40 mins in presence of [gamma-33P]ATP by scintillation counting method
[24] = target: Serine/threonine-protein kinase SIK2 (Homo sapiens) (UniProt Q9H0K1); assay: Inhibition of recombinant human SIK2 (1 to 276 residues) at 1 uM using KKKVSRSGLYRSPSMPENLNRPR as substrate after 40 mins in presence of [gamma-33P]ATP by scintillation counting method

Macrophage colony-stimulating factor 1 receptor (Homo sapiens), sequence (P07333 whole entry, the tested form may be a part): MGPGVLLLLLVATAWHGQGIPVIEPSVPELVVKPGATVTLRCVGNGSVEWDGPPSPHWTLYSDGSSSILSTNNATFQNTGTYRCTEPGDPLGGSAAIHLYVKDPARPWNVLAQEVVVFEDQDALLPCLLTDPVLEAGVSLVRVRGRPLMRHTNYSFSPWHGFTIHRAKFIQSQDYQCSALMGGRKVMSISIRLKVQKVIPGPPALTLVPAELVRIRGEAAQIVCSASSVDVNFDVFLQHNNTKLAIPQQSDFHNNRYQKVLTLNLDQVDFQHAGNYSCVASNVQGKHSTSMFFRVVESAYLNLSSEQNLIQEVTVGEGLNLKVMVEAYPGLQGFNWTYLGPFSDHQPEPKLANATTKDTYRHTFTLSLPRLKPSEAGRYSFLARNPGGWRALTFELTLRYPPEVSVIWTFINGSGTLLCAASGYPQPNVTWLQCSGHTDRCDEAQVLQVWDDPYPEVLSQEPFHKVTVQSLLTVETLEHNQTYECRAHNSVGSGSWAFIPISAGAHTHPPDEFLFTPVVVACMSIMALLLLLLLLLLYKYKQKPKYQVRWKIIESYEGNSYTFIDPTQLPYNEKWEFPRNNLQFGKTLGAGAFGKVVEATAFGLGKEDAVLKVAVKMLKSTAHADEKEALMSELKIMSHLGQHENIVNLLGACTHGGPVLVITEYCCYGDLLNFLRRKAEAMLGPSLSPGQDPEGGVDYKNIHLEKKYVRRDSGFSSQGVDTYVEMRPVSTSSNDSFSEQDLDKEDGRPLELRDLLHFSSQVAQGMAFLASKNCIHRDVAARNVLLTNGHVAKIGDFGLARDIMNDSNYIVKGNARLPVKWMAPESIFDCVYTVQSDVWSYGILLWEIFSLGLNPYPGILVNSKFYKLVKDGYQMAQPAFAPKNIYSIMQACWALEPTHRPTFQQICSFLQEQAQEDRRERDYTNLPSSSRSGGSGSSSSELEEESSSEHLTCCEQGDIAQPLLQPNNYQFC
Insulin receptor (Homo sapiens), sequence (P06213 28-758 limits assumed): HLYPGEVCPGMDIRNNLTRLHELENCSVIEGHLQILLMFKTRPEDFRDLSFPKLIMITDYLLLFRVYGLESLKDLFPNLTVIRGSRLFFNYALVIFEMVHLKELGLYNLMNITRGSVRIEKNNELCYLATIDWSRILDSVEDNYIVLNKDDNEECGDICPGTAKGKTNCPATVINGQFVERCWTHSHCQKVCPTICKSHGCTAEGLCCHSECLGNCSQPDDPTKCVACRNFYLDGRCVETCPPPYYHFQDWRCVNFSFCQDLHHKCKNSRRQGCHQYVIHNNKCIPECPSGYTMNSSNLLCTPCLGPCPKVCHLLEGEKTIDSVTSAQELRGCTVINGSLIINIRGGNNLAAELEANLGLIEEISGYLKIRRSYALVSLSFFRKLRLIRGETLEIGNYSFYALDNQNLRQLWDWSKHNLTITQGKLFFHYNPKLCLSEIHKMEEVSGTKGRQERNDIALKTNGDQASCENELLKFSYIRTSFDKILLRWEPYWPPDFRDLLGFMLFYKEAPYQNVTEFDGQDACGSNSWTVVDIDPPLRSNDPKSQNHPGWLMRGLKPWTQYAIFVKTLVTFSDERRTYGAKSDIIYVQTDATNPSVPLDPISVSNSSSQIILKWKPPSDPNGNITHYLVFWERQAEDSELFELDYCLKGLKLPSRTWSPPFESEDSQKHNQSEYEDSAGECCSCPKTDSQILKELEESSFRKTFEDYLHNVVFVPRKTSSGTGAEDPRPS
Insulin receptor (Homo sapiens), sequence (P06213 763-1382 limits assumed): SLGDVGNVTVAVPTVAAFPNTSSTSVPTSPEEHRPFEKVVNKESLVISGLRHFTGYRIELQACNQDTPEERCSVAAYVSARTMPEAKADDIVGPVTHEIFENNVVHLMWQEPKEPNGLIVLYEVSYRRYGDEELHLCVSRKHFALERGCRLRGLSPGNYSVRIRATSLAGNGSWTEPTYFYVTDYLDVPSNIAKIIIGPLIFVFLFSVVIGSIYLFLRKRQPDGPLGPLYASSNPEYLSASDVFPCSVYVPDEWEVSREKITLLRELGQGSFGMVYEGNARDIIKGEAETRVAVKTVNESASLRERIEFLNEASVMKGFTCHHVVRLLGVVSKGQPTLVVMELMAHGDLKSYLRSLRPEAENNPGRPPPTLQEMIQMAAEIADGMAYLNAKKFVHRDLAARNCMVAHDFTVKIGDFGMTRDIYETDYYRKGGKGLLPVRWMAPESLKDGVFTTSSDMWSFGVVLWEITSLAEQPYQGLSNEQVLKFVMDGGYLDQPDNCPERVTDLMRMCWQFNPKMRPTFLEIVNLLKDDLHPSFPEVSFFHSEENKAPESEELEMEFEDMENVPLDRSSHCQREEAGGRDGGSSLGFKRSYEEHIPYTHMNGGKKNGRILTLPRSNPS
Serine/threonine-protein kinase Nek2 (Homo sapiens), sequence (P51955 whole entry, the tested form may be a part): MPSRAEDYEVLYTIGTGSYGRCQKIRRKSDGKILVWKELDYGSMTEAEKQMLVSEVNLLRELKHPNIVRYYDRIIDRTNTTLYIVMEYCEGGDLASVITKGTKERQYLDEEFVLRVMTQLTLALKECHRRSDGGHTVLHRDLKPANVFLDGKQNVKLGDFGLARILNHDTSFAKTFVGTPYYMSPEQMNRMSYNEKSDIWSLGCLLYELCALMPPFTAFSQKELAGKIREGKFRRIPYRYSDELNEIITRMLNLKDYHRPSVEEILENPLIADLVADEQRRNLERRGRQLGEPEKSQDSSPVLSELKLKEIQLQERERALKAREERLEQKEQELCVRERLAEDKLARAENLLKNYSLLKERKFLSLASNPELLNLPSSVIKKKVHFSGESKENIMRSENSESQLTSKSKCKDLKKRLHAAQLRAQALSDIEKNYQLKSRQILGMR
Serine/threonine-protein kinase TAO3 (Homo sapiens), sequence (Q9H2K8 whole entry, the tested form may be a part): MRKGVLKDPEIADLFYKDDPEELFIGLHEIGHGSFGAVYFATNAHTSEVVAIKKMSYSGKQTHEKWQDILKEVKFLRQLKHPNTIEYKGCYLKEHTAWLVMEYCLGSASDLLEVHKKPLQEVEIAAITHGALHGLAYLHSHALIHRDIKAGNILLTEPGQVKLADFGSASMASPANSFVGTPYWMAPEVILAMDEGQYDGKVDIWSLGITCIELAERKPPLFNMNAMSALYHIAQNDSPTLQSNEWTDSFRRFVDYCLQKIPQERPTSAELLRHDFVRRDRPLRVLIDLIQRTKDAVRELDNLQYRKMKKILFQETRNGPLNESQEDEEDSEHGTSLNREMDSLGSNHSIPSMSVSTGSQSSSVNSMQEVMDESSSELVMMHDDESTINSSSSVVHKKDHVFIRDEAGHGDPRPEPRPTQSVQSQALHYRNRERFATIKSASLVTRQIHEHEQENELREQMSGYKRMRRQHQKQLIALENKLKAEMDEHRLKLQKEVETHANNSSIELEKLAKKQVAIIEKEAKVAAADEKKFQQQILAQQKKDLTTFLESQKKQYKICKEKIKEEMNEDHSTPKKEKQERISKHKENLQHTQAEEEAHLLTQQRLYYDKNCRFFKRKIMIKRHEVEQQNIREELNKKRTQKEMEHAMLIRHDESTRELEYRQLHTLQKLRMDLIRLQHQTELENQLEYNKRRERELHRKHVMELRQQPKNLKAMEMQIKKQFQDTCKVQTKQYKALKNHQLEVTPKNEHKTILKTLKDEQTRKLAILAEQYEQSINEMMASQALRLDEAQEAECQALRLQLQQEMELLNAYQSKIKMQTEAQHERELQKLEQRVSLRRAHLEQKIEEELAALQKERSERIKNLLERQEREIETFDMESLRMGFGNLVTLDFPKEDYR
Protein-tyrosine kinase 6 (Homo sapiens), sequence (Q13882 whole entry, looked up): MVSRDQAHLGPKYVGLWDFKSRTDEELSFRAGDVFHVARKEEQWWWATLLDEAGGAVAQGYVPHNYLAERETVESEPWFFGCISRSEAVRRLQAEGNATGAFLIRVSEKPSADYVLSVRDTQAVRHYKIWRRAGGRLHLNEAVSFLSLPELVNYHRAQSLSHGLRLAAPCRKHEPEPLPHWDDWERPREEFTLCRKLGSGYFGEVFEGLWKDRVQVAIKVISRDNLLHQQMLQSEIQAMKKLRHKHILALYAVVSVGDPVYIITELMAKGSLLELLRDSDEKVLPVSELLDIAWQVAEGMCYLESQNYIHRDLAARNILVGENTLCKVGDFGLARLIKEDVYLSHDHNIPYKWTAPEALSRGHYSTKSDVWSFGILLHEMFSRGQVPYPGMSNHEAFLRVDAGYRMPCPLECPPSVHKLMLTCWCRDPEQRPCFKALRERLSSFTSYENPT
Bone morphogenetic protein receptor type-1B (Homo sapiens), sequence (O00238 whole entry): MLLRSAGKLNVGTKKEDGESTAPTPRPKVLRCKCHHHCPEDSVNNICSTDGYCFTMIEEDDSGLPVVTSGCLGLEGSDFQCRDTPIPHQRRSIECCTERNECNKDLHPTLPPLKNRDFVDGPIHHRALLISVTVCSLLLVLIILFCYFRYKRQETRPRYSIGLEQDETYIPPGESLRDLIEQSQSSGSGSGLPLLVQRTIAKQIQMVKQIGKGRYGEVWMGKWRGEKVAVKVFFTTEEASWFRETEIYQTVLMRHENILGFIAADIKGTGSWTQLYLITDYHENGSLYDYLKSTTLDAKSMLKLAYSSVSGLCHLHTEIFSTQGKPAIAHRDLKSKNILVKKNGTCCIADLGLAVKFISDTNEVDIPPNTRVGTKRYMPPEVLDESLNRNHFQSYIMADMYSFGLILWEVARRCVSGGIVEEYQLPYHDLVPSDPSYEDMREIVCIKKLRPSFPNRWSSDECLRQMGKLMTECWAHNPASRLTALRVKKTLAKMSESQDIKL
Aurora kinase A (Homo sapiens), sequence (O14965 whole entry, the tested form may be a part): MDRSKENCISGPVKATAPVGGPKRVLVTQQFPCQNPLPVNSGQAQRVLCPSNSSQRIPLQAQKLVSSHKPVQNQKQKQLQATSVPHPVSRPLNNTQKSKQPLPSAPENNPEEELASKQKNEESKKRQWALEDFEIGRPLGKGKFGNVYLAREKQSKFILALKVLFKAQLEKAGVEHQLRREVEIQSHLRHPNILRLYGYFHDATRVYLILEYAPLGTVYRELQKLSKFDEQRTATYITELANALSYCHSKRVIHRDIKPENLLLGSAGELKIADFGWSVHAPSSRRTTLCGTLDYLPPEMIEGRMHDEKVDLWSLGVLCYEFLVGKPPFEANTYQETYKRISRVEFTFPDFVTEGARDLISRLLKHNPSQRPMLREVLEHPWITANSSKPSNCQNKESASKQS

With CS(=O)(=O)c1ccc(-n2nc(-c3cnc4[nH]ccc4c3)c3c(N)ncnc32)cc1 as the compound, how does the inhibition [1] read?
The inhibition was 5%.

And the inhibition [2]?
The inhibition was 4%.

What about the inhibition [3] of the same compound?
Its inhibition is 15%.

And the inhibition [4]?
The inhibition was 14%.

And the inhibition [5]?
The inhibition was 102%.

What about the inhibition [6] of the same compound?
The inhibition was 76%.

What about the inhibition [7] of the same compound?
Its inhibition is 6%.

And the inhibition [8]?
Its inhibition is 11%.

And the inhibition [9]?
Its inhibition is 18%.

What about the inhibition [10] of the same compound?
Its inhibition is 10%.

What about the inhibition [11] of the same compound?
Its inhibition is 14%.

And the inhibition [12]?
The inhibition was 3%.

What about the inhibition [13] of the same compound?
Its inhibition is 4%.

What about the inhibition [14] of the same compound?
The inhibition was 5%.

What about the inhibition [15] of the same compound?
The inhibition was 19%.

And the inhibition [16]?
The inhibition was -5%.

What about the inhibition [17] of the same compound?
Its inhibition is 8%.

And the inhibition [18]?
The inhibition was 8%.

And the inhibition [19]?
The inhibition was 8%.

What about the inhibition [20] of the same compound?
Its inhibition is 1%.

And the inhibition [21]?
The inhibition was -6%.

What about the inhibition [22] of the same compound?
The inhibition was -1%.

And the inhibition [23]?
The inhibition was 4%.

What about the inhibition [24] of the same compound?
The inhibition was 21%.
